Our source for the inhibition and Activity values is ChEMBL document CHEMBL4680113, “Tigliane Diterpenoids as a New Type of Antiadipogenic Agents Inhibit GRα-Dexras1 Axis in Adipocytes” (J Med Chem, 2019).

The source made the active and inactive calls. No cut-off for these calls is given here.

The test system of data set [1] is 3T3-L1. The data set is described as follows: Lipid lowering activity in mouse 3T3-L1 cells assessed as reduction in adipogenic cocktail-induced triglyceride levels at 10 uM incubated for 6 days by GPO-POD assay. The data set is classed as functional. The note with it: for inhibition: time 6.0 day; for inhibition at 10 µM: 3T3-L1, 144 h, time 6 day.
Data set [2] has as its system 3T3-L1. The data set can be described thus: Lipid lowering activity in mouse 3T3-L1 cells assessed as reduction in adipogenic cocktail-induced triglyceride levels at 1 to 10 uM by Oil-Red O staining. The data set is classed as functional, cell-based. The note with it: dose 1-10 µM.
Data set [3] concerns 3T3-L1. The data set is described as follows: Toxicity in mouse 3T3-L1 cells assessed as reduction in cell viability at 10 uM incubated for 6 days by LDH release assay. The note with it: 3t3-l1, 144 h, time 6 day. The data set is classed as cell-based.
For data set [4], the system named is 3T3-L1. The data set is described as follows: Lipid increasing activity in mouse 3T3-L1 cells assessed as increase in adipogenic cocktail induced triglyceride levels at 1 uM incubated for 6 days by GPO-POD assay. The data set is classed as functional, cell-based. The note with it: time 6.0 day.
Data set [5] deals with 3T3-L1. The data set can be described thus: Activation of adipogenic cocktail-induced PPARgamma mRNA expression in mouse 3T3-L1 cells at 1 uM by RT-qPCR analysis. The data set is classed as functional, cell-based.
In data set [6] the test system is 3T3-L1. The data set can be described thus: Activation of GR-alpha in mouse 3T3-L1 cells assessed as increase in adipogenic cocktail-induced Dexras1 mRNA expression at 10 uM incubated for 4 hrs by RT-qPCR analysis. The settings on record: filed as agonist. The data set is classed as cell-based.
Data set [7] relates to 3T3-L1. The data set can be described thus: Inhibition of adipogenic cocktail-induced GR-alpha nuclear translocation in mouse 3T3-L1 cells at 10 uM after 8 hrs by Western blot analysis. In kind it is cell-based. The note with it: filed as antagonist. A general note: A western blot detects proteins with antibodies after separation by electrophoresis.
In data set [8] the test system is 3T3-L1. The data set can be described thus: Lipid lowering activity in mouse 3T3-L1 cells assessed as reduction in adipogenic cocktail induced triglyceride levels at 1 uM incubated for 6 days by GPO-POD assay. In kind it is functional, cell-based. The settings on record: time 6.0 day.
Data set [9] deals with 3T3-L1. The data set is described as follows: Inhibition of adipogenic cocktail-induced PPARgamma mRNA expression in mouse 3T3-L1 cells at 1 uM by RT-qPCR analysis. In kind it is functional, cell-based. (In general: In qPCR the cycle at which signal appears reflects the starting amount.)
In data set [10] the test system is 3T3-L1. The data set is described as follows: Inhibition of GR-alpha in mouse 3T3-L1 cells assessed as reduction in adipogenic cocktail-induced Dexras1 mRNA expression at 10 uM incubated for 4 hrs by RT-qPCR analysis. In kind it is cell-based. The note with it: filed as antagonist.

Usually inhibition stands for the share of the control response that was lost under treatment.

For `CC(=O)O[C@@H]1[C@]2(C)OC[C@]3(C(=O)C=C[C@H](C(C)(C)OC(C)=O)[C@@H]23)[C@H](OC(C)=O)[C@H]2[C@@H](OC(=O)c3cccnc3)[C@@H](C)C[C@@]21OC(C)=O`, in the data set with 3T3-L1 [1], the inhibition result is “inactive”.
Same read-out and setting: the same measure for `CC(=O)O[C@@H]1[C@@H]2[C@@H](OC(C)=O)[C@@]34CO[C@@](C)([C@H](OC(=O)c5ccccc5)[C@@]2(O)C[C@@H]1C)[C@@H]3[C@@H]1[C@@H](C[C@]1(C)OC(C)=O)[C@@H](OC(=O)c1ccccc1)C4=O`: “inactive”; for `CC(=O)O[C@@H]1[C@H]2[C@@H](OC(=O)c3cccnc3)[C@@H](C)C[C@]2(OC(C)=O)[C@@H](OC(C)=O)[C@]2(C)OC[C@]13C(=O)[C@H](OC(=O)c1ccccc1)[C@@H]1C[C@](C)(OC(C)=O)[C@@H]1[C@@H]23`: “inactive”.
Take `CC(=O)O[C@@H]1[C@H]2[C@@H](OC(C)=O)[C@](C)(OC(C)=O)C[C@]2(OC(C)=O)[C@H](OC(=O)c2ccccc2)[C@]2(C)OC[C@]13[C@H](OC(C)=O)C=C[C@H](C(C)(C)OC(C)=O)[C@@H]23`: the inhibition at 10 µM in the data set on 3T3-L1 [1] is above 60%. In addition, the inhibition result in the data set on 3T3-L1 [2] was “Active”. In the data set on 3T3-L1 [3], the Activity entry is “Non-Toxic”.
For `CC(=O)O[C@@H]1[C@@H]2[C@@H](OC(C)=O)[C@@]34CO[C@@](C)([C@H](OC(C)=O)[C@@]2(OC(C)=O)C[C@@H]1C)[C@@H]3[C@@H]1[C@@H](C[C@]1(C)OC(C)=O)[C@@H](OC(=O)c1ccccc1)C4=O`, the inhibition result in the data set on 3T3-L1 [1] is “Active”.
The same measure, in the same setting: the same measure for `CCC(=O)O[C@@H]1[C@@H]2[C@@H](OC(C)=O)[C@@]34CO[C@@](C)([C@H](OC(C)=O)[C@@]2(O)C[C@@H]1C)[C@@H]3[C@@H]1[C@@H](C[C@]1(C)OC(C)=O)[C@@H](OC(=O)c1ccccc1)C4=O`: “inactive”.
As to `CCC(=O)O[C@@H]1[C@@H]2[C@@H](OC(C)=O)[C@@]34CO[C@@](C)([C@@H](OC(=O)C(C)CC)[C@@]2(OC(C)=O)C[C@@]1(C)OC(C)=O)[C@@H]3[C@@H](C(C)(C)OC(C)=O)C=C[C@H]4OC(C)=O` (some centres not stated), the inhibition at 10 µM with 3T3-L1 [1] was above 60%. The inhibition entry in the data set on 3T3-L1 [2] is “Active”. Besides, the Activity entry in the data set with 3T3-L1 [3] is on record as “Non-Toxic”.
Regarding `CCC(=O)O[C@@H]1[C@@H]2[C@@H](OC(C)=O)[C@@]34CO[C@@](C)([C@H](OC(C)=O)[C@@]2(OC(C)=O)C[C@@H]1C)[C@@H]3[C@@H]1[C@@H](C[C@]1(C)OC(C)=O)[C@@H](O)C4=O`, the inhibition result in the data set with 3T3-L1 [1] and with 3T3-L1 [2] was “Active” in each case. In the data set with 3T3-L1 [3], the Activity result is recorded as “Non-Toxic”.
`CC(=O)O[C@@H]1[C@H]2[C@@H](OC(C)=O)[C@](C)(O)C[C@]2(OC(C)=O)[C@H](OC(=O)c2ccccc2)[C@]2(C)OC[C@]13[C@H](OC(C)=O)C=C[C@H](C(C)(C)OC(C)=O)[C@@H]23`: the inhibition at 10 µM in the data set on 3T3-L1 [1] was above 60%. The inhibition result in the data set on 3T3-L1 [2] was “Active”. In addition, the Activity entry in the data set on 3T3-L1 [3] is “Non-Toxic”.
Regarding `CCC(=O)O[C@@H]1[C@@H]2[C@@H](OC(C)=O)[C@@]34CO[C@@](C)([C@H](OC(C)=O)[C@@]2(OC(C)=O)C[C@@H]1C)[C@@H]3[C@@H]1[C@@H](C[C@]1(C)OC(C)=O)[C@@H](OC(=O)c1ccccc1)C4=O`, the inhibition result in the data set with 3T3-L1 [1] and in the data set with 3T3-L1 [2] was “Active” throughout. Moreover, in the data set with 3T3-L1 [3], the Activity entry is listed as “Non-Toxic”.
As to `CC1=C[C@@H]2[C@H](C1=O)[C@H](O)C(C)=C[C@H]1[C@@H]3C(C)(C)[C@]3(OC(=O)C(C)C)[C@H](OC(=O)c3ccccc3)[C@@H](C)[C@]21O` [EUPHODENDRIANE A], the inhibition at 10 µM in the data set on 3T3-L1 [1] was above 50%. In the data set on 3T3-L1 [2], the inhibition result was “Active”. The Activity result in the data set on 3T3-L1 [3] is reported as “Non-Toxic”.
Regarding `CC(=O)O[C@@H]1[C@@H]2[C@@H](OC(C)=O)[C@@]34CO[C@@](C)([C@H](OC(C)=O)[C@@]2(OC(C)=O)C[C@@H]1C)[C@@H]3[C@@H]1[C@@H](C[C@]1(C)OC(C)=O)[C@@H](OC(=O)C(C)C)C4=O`, in the data set with 3T3-L1 [1], the inhibition entry was “inactive”.
Still for that read-out and setting: the value for `CC(=O)O[C@@H]1[C@H]2[C@@H](OC(=O)c3cccnc3)[C@@H](C)C[C@]2(OC(C)=O)[C@@H](OC(C)=O)[C@]2(C)OC[C@]13C(=O)[C@@H](O)[C@@H]1C[C@](C)(OC(C)=O)[C@@H]1[C@@H]23` was “inactive”.
In the case of `CCCC(=O)O[C@@H]1[C@@H]2[C@@H](OC(C)=O)[C@@]34CO[C@@](C)([C@H](OC(C)=O)[C@@]2(OC(C)=O)C[C@@H]1C)[C@@H]3[C@@H](C(C)(C)OC(C)=O)C=C[C@H]4OC(C)=O`, in the data set on 3T3-L1 [1], the inhibition at 10 µM was above 60%. In addition, the inhibition result with 3T3-L1 [2] was “Active”. For the same molecule, in the data set with 3T3-L1 [3], the Activity entry was “Non-Toxic”.
Turning to `CC(=O)O[C@@H]1[C@H]2[C@@H](OC(=O)c3cccnc3)[C@@H](C)C[C@]2(OC(C)=O)[C@@H](OC(C)=O)[C@]2(C)OC[C@]13C(=O)[C@H](O)[C@@H]1C[C@](C)(OC(C)=O)[C@@H]1[C@@H]23`, the inhibition entry in the data set on 3T3-L1 [1] is “inactive”. In addition, the inhibition entry in the data set on 3T3-L1 [2] was “Active”. The Activity result with 3T3-L1 [3] is on record as “Non-Toxic”.
As for `CC(=O)OC[C@]12[C@H](OC(=O)c3ccccc3)[C@H]3[C@@H](OC(=O)c4cccnc4)[C@@H](C)C[C@]3(O)C(=O)[C@@](C)(OC(C)=O)[C@@H]1[C@@H]1[C@H](C[C@H]2OC(C)=O)C1(C)C`, in the data set with 3T3-L1 [1], the inhibition at 10 µM is above 60%. Also, the inhibition result in the data set on 3T3-L1 [2] was “Active”. Besides, the Activity entry with 3T3-L1 [3] is on record as “Non-Toxic”.
As for `C[C@H]1C[C@@H]2[C@H]([C@@H](O)C[C@@]3(C)[C@H]2CC[C@]3(O)C(=O)CO)[C@@]2(C)C=CC(=O)C=C12`, the outcome in the data set on 3T3-L1 [4], with 3T3-L1 [5] and with 3T3-L1 [6] was Active.
With `CCC(=O)O[C@@H]1[C@@H]2[C@@H](OC(=O)c3ccccc3)[C@@]3(COC(C)=O)[C@@H]([C@@H]4[C@H](C[C@H]3OC(C)=O)C4(C)C)[C@](C)(OC(C)=O)C(=O)[C@@]2(O)C[C@@H]1C`, the inhibition at 10 µM in the data set on 3T3-L1 [1] is above 60%. Moreover, in the data set with 3T3-L1 [2], the inhibition entry is “Active”. Besides, the Activity entry in the data set on 3T3-L1 [3] is recorded as “Non-Toxic”.
In the same order, the values of `CC1=C[C@H]2[C@@H]3C(C)(C)[C@]3(OC(=O)C(C)C)[C@H](OC(=O)c3ccccc3)[C@@H](C)[C@]2(O)[C@@H]2C=C(C)C(=O)C2=C1` are above 50%, “Active” and “Non-Toxic”.
Turning to `CCC(=O)O[C@@H]1[C@@H]2[C@@H](OC(C)=O)[C@@]34CO[C@@](C)([C@H](OC(C)=O)[C@@]2(OC(C)=O)C[C@@H]1C)[C@@H]3[C@@H]1[C@@H](C[C@]1(C)OC(C)=O)[C@@H](OC(=O)C(C)CC)C4=O` (some centres not stated), the inhibition result in the data set with 3T3-L1 [1] was “inactive”.
Turning to `CC(=O)O[C@@H]1[C@@H]2[C@@H](OC(C)=O)[C@@]34CO[C@@](C)([C@H](OC(C)=O)[C@@]2(OC(C)=O)C[C@@H]1C)[C@@H]3[C@@H]1[C@@H](C[C@]1(C)OC(C)=O)[C@H](O)C4=O`, the inhibition at 10 µM with 3T3-L1 [1] is above 60%. In addition, the inhibition entry in the data set with 3T3-L1 [2] was “Active”. Further, in the data set on 3T3-L1 [3], the Activity result is on record as “Non-Toxic”.
In the same order, the values of `CCC(=O)O[C@@H]1[C@@H]2[C@@H](OC(C)=O)[C@@]34CO[C@@](C)([C@H](OC(C)=O)[C@@]2(OC(C)=O)C[C@@H]1C)[C@@H]3[C@@H]1[C@@H](C[C@]1(C)OC(C)=O)[C@@H](OC(=O)C(C)C)C4=O` are above 60%, “Active” and “Non-Toxic”.
Consider `CCCC(=O)O[C@@H]1[C@@H]2[C@@H](OC(C)=O)[C@@]34CO[C@@](C)([C@H](OC(C)=O)[C@@]2(OC(C)=O)C[C@@H]1C)[C@@H]3[C@@H]1[C@@H](C[C@]1(C)OC(C)=O)[C@@H](OC(=O)c1ccccc1)C4=O`, for which the inhibition result in the data set on 3T3-L1 [1] is “Active”.
For the molecule `CC#C[C@]1(O)CC[C@H]2[C@@H]3CCC4=CC(=O)CCC4=C3[C@@H](c3ccc(N(C)C)cc3)C[C@@]21C`, the inhibition entry with 3T3-L1 [7], in the data set with 3T3-L1 [8], in the data set on 3T3-L1 [9] and in the data set on 3T3-L1 [10] was “Active” each time.
Consider `CC(=O)O[C@@H]1[C@H]2[C@@H](OC(=O)c3cccnc3)[C@@H](C)C[C@]2(OC(C)=O)[C@@H](OC(C)=O)[C@]2(C)OC[C@]13C(=O)[C@H](OC(=O)C(C)C)[C@@H]1C[C@](C)(OC(C)=O)[C@@H]1[C@@H]23`, for which the inhibition result with 3T3-L1 [1] was “inactive”.
The same measure, in the same setting: the value for `CCC(=O)O[C@@H]1[C@@H]2[C@@H](OC(C)=O)[C@@]34CO[C@@](C)([C@H](OC(=O)c5ccccc5)[C@@]2(OC(C)=O)C[C@@H]1C)[C@@H]3[C@@H](C(C)(C)OC(C)=O)C=CC4=O` was “Active”.
